This test deals with T1, human Nav1.8 (hNav1.8) ion channel (Homo sapiens, UniProt Q9Y5Y9).
T1 construct: expressed in transfected cells
Put plainly: Inhibition of human Nav1.8 stably expressed in SH-SY-5Y cells (membrane potential dye fluorescence assay). Format: cell-based.

The mark [1] stands for this setting: Table 1, SH-SY-5Y hNav1.8 cells, inhibition of membrane depolarisation, FLIPR membrane potential dye, 250 nM TTX, test concentration range 100 μM-0.05 μM, read-out: IC50.
Setting [2] is: Table 2 (compound numbers of the list in the description), SH-SY-5Y hNav1.8 cells, inhibition of membrane depolarisation, FLIPR membrane potential dye, 250 nM TTX, test concentration range 100 μM-0.05 μM, read-out: IC50.

Read-outs that look alike come from different tables or passages of the source.

This is an account of results in patent publication US20070043024A1, “Azacyclic compounds as inhibitors of sensory neurone specific channels” (priority 2003, published 2007).

T1 sequence (Q9Y5Y9 whole entry): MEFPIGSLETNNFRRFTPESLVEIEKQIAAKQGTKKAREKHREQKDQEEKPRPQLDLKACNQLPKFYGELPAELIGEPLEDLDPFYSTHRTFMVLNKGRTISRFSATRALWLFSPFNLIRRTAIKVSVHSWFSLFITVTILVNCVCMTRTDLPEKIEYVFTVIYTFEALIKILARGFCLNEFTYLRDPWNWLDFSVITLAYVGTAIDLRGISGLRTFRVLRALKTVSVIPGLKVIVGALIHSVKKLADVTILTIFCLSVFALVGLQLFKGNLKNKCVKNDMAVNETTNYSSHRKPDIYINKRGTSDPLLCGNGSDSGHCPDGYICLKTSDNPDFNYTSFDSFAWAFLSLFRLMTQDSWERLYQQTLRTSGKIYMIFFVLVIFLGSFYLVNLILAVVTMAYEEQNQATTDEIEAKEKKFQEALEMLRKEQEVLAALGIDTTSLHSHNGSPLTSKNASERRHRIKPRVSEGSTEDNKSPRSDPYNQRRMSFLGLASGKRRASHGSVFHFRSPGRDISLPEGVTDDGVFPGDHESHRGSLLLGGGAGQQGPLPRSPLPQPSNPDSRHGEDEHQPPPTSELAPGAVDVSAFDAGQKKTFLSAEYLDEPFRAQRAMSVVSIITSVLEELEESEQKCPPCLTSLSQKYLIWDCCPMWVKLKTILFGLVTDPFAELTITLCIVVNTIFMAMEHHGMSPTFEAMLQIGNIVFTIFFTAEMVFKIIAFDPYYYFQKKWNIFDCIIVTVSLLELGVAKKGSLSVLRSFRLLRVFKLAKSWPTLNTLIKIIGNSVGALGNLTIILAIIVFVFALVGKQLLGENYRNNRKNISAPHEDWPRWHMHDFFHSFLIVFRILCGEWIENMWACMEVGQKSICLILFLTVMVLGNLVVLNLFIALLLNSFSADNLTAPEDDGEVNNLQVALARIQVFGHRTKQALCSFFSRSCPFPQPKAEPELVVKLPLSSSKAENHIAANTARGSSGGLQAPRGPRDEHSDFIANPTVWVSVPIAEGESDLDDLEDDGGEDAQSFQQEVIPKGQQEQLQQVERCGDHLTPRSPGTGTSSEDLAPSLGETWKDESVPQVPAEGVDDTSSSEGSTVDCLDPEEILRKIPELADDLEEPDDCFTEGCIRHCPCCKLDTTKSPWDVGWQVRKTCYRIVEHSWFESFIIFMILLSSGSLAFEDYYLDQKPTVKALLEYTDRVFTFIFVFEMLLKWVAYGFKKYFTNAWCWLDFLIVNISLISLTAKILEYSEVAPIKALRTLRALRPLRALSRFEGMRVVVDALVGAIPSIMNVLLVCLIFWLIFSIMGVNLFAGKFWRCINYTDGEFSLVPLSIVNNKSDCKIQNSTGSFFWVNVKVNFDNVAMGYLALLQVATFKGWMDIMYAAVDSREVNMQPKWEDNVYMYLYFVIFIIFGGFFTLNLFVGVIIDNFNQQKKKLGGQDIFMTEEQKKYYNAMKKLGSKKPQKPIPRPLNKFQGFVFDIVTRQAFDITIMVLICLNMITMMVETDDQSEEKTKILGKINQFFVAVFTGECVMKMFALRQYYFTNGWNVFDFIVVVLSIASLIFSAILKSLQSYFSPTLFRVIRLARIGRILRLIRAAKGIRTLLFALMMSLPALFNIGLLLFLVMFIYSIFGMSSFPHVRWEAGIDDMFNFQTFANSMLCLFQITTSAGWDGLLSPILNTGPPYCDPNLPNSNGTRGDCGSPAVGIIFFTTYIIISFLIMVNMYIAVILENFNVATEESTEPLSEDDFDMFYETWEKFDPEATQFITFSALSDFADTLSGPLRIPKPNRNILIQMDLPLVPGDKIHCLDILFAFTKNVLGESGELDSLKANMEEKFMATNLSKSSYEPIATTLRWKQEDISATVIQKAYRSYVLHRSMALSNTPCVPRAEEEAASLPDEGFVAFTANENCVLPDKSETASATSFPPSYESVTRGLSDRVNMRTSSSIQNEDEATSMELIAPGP

The term IC50 denotes the concentration that inhibits the measured activity by half. Regarding `COc1cccc2c1CN(C(C)C(=O)NCCC(c1ccccc1)c1ccccc1)CC2` (stereo not drawn) [Example 77, N-(3,3-Diphenyl-propyl)-2-(8-methoxy-3,4-dihydro-1H-isoquinolin-2-yl)-propionamide], under setting [1], the IC50 was 660 nM. Turning to `COc1cccc2c1CN(CCC(=O)NCCC(c1ccc(F)cc1)c1ccc(F)cc1)CC2` [Compound 166, N-[3,3-Bis-(4-fluoro-phenyl)-propyl]-3-(8-methoxy-3,4-dihydro-1H-isoquinolin-2-yl)-propionamide], the IC50 under setting [2] is 350 nM.

For `O=C(CN1Cc2cccc(O)c2C1)N1c2ccccc2Oc2ccccc21` [Compound 202, 2-(4-Hydroxy-1,3-dihydro-isoindol-2-yl)-1-phenoxazin-10-yl-ethanone], the IC50 under setting [2] is 680 nM. On to `O=C(CN1Cc2ccccc2C1)N1CCN(C(c2ccc(F)cc2)c2ccc(F)cc2)CC1` [Example 68, 1-{4-[Bis-(4-fluoro-phenyl)-methyl]-piperazin-1-yl}-2-(1,3-dihydro-isoindol-2-yl)-ethanone], for which the IC50 under setting [1] was determined as 1950 nM.

In the case of `COc1cc2c(cc1OC)CN(CCNC(=O)NC(c1ccccc1)c1ccccc1)CC2` [Compound 136, 1-Benzhydryl-3-[2-(6,7-dimethoxy-3,4-dihydro-1H-isoquinolin-2-yl)-ethyl]-urea], the IC50 under setting [2] was found to be 2110 nM.

As for `COc1cccc2c1CN(CCCOC=C(c1ccccc1)c1ccccc1)CC2` [Compound 74, 2-[3-(2,2-diphenyl-vinyloxy)-propyl]-8-methoxy-1,2,3,4-tetrahydro-isoquinoline], the IC50 under setting [2] came to 1800 nM. On to `COc1ccc(C2COc3ccccc3N2C(=O)CN2CCc3cccc(OC)c3C2)cc1` (stereo not drawn) [Compound 212, 2-(8-Methoxy-3,4-dihydro-1H-isoquinolin-2-yl)-1-[3-(4-methoxy-phenyl)-2,3-dihydro-benzo[1,4]oxazin-4-yl]-ethanone], for which the IC50 under setting [2] was found to be 5060 nM. As to `COc1cccc2c1CN(CC(=O)NCC(c1ccccc1)c1ccccc1)CC2` [Example 61, N-(2,2-Diphenyl-ethyl)-2-(8-methoxy-3,4-dihydro-1H-isoquinolin-2-yl)-acetamide], the half-inhibitory concentration (IC50) under setting [1] was found to be 2560 nM. In the case of `O=C(CN1CCc2cccc(O)c2C1)NC1c2ccccc2-c2ccccc21` [Example 26, N-(9H-fluoren-9-yl)-2-(8-hydroxy-3,4-dihydro-1H-isoquinolin-2-yl)acetamide], the IC50 under setting [1] was determined as 670 nM. Turning to `O=C(CN1CCc2cccc(O)c2C1)Nc1ccccc1Oc1ccccc1` [Compound 185, 2-(8-Hydroxy-3,4-dihydro-1H-isoquinolin-2-yl)-N-(2-phenoxy-phenyl)-acetamide], the IC50 under setting [2] is 1850 nM. Still for that read-out and setting: the value for `COc1cccc2c1CN(CC(=O)N1c3ccccc3Oc3cnn(C)c31)CC2` [Compound 199, 2-(8-Methoxy-3,4-dihydro-1H-isoquinolin-2-yl)-1-(1-methyl-1H-4-oxa-1,2,9-triaza-cyclopenta[b]naphthalen-9-yl)-ethanone] was 8260 nM. For `S=C(NC(c1ccccc1)c1ccccc1)N1CCc2ccccc2C1` [Example 50, 3,4-Dihydro-1H-isoquinoline-2-carbothioic acid benzhydryl-amide], the IC50 under setting [1] is 2740 nM. For the compound `O=C(CN1CCc2ccccc2C1)NC(c1ccc(F)cc1)c1ccc(F)cc1` [Compound 119, N-[Bis-(4-fluoro-phenyl)-methyl]-2-(3,4-dihydro-1H-isoquinolin-2-yl)-acetamide], the IC50 under setting [2] stood at 1910 nM. In the case of `Nc1cccc2c1CCN(CC(=O)NCC(c1ccccc1)c1ccccc1)C2` [Compound 123, 2-(5-Amino-3,4-dihydro-1H-isoquinolin-2-yl)-N-(2,2-diphenyl-ethyl)-acetamide], the IC50 under setting [2] came out at 2890 nM.

Regarding `COc1cc2c(cc1OC)CN(CC(=O)N1c3ccccc3Sc3ccc(SC)cc31)CC2` [Compound 156, 2-(6,7-Dimethoxy-3,4-dihydro-1H-isoquinolin-2-yl)-1-(2-methylsulfanyl-phenothiazin-10-yl)-ethanone], the IC50 under setting [2] was determined as 2370 nM. Take `Nc1cccc2c1CN(CC(=O)NCCCC(c1ccccc1)c1ccccc1)C2` [Compound 100, 2-(4-Amino-1,3-dihydro-isoindol-2-yl)-N-(4,4-diphenyl-butyl)-acetamide]: the IC50 under setting [2] worked out at 970 nM. The same measure, in the same setting: the value for `Nc1cccc2c1CN(CC(=O)N1c3ccccc3Oc3ccccc31)CC2` [Compound 175, 2-(8-Amino-3,4-dihydro-1H-isoquinolin-2-yl)-1-phenoxazin-10-yl-ethanone] was 1530 nM. `COc1cc2c(cc1OC)CN(CC(=O)N1c3ccccc3Sc3ccc(Cl)cc31)CC2` [Compound 153, 1-(2-Chloro-phenothiazin-10-yl)-2-(6,7-dimethoxy-3,4-dihydro-1H-isoquinolin-2-yl)-ethanone]: the IC50 under setting [2] is 5310 nM.

On to `O=C(NCCN1CCc2cccnc2C1)N1c2ccccc2Oc2ccccc21` [Compound 201, Phenoxazine-10-carboxylic acid [2-(5,8-dihydro-6H-[1,7]naphthyridin-7-yl)-ethyl]-amide], for which the IC50 under setting [2] amounted to 6090 nM. For the compound `Nc1cccc2c1CN(CC(=O)NCC(c1ccccc1)c1ccccc1)C2` [Compound 98, 2-(4-Amino-1,3-dihydro-isoindol-2-yl)-N-(2,2-diphenyl-ethyl)-acetamide], the concentration for half-maximal inhibition (IC50) under setting [2] turned out to be 6760 nM. `COc1cccc2c1CN(C(=O)CN(CC(=O)N1CCc3cccc(OC)c3C1)CC(c1ccccc1)c1ccccc1)CC2` [Example 36]: the IC50 under setting [1] was determined as 2800 nM.

Regarding `O=C(CNCCC(c1ccccc1)c1ccccc1)N1CCc2ccccc2C1` [Example 34, 1-(3,4-Dihydro-1H-isoquinolin-2-yl)-2-(3,3-diphenyl-propylamino)-ethanone], the IC50 under setting [1] is 190 nM. With `O=C(CN1CCc2ccccc2C1)NCCC(c1ccccc1)c1ccccc1` [Example 18, 2-(3,4-Dihydro-1H-isoquinolin-2yl)-N-(3,3-diphenyl-propyl)-acetamide], the IC50 under setting [1] amounted to 680 nM. For the compound `Oc1cccc2c1CN(Cc1cc(F)cc(F)c1)CC2` [Example 93, 2-(3,5-Difluoro-benzyl)-1,2,3,4-tetrahydro-isoquinolin-8-ol], the IC50 under setting [1] was found to be 4720 nM. On the same count and under the same terms, then `Fc1ccc(C(CCCN2CCc3ccccc3C2)c2ccc(F)cc2)cc1` [Example 9, 2-[4,4-Bis-(4-fluoro-phenyl)-butyl]-1,2,3,4-tetrahydro-isoquinoline], with 430 nM.

In the case of `CC(=O)Nc1cccc2c1CN(CC(=O)NCCCC(c1ccccc1)c1ccccc1)CC2` [Compound 112, 2-(8-Acetylamino-3,4-dihydro-1H-isoquinolin-2-yl)-N-(4,4-diphenyl-butyl)-acetamide], the IC50 under setting [2] came out at 790 nM.

Regarding `COc1cccc2c1CN(CC(=O)N1c3ccccc3CCc3ccccc31)CC2` [Compound 73, 1-(10,11-dihydro-dibenzo[b,f]azepin-5-yl)-2-(8-methoxy-3,4-dihydro-1H-isoquinolin-2-yl)-ethanone], the IC50 under setting [2] was 1280 nM. Turning to `COc1cccc2c1CN(CC(=O)N1CCN(C(c3ccc(F)cc3)c3ccc(F)cc3)CC1)CC2` [Example 63, 1-{4-[Bis-(4-fluoro-phenyl)-methyl]-piperazin-1-yl}-2-(8-methoxy-3,4-dihydro-1H-isoquinolin-2-yl)-ethanone], under setting [1], the IC50 was 15800 nM. On the same count and under the same terms, then `O=C(CN1CCc2cccc(O)c2C1)NC(c1ccccc1)c1ccccc1` [Example 24, N-Benzhydryl-2-(8-hydroxy-3,4-dihydro-1H-isoquinolin-2-yl)-acetamide], with 1510 nM.

For the compound `COc1cc2c(cc1OC)CN(CC(=O)NN(c1ccccc1)c1ccccc1)CC2` [Compound 169, (6,7-Dimethoxy-3,4-dihydro-1H-isoquinolin-2-yl)-acetic acid N′,N′-diphenyl-hydrazide], under setting [2], the IC50 stood at 29900 nM.

As for `COc1cccc2c1CN(CC(=O)N1CCOc3ccccc31)CC2` [Compound 192, 1-(2,3-Dihydro-benzo[1,4]oxazin-4-yl)-2-(8-methoxy-3,4-dihydro-1H-isoquinolin-2-yl)-ethanone], the IC50 under setting [2] is 9060 nM. The compound `COc1cccc2c1CN(CC(=O)NCCSC(c1ccccc1)c1ccccc1)CC2` [Compound 96, N-(2-Benzhydrylsulfanyl-ethyl)-2-(8-methoxy-3,4-dihydro-1H-isoquinolin-2-yl)-acetamide] yielded an IC50 of 1110 nM.

Regarding `COc1cccc2c1CN(CC(=O)N(c1ccccc1)c1ccccc1)CC2` [Compound 150, 2-(8-Methoxy-3,4-dihydro-1H-isoquinolin-2-yl)-N,N-diphenyl-acetamide], the IC50 under setting [2] came to 1790 nM. Consider `O=C(CN1CCc2ccc(O)cc2C1)N1c2ccccc2Oc2ccccc21` [Compound 193, 2-(7-Hydroxy-3,4-dihydro-1H-isoquinolin-2-yl)-1-phenoxazin-10-yl-ethanone], for which the IC50 under setting [2] was 3170 nM. The same measure, in the same setting: the value for `COc1ccc(OC)c(C2COc3ccccc3N2C(=O)CN2CCc3cccc(OC)c3C2)c1` (stereo not drawn) [Compound 213, 1-[3-(2,5-Dimethoxy-phenyl)-2,3-dihydro-benzo[1,4]oxazin-4-yl]-2-(8-methoxy-3,4-dihydro-1H-isoquinolin-2-yl)-ethanone] was 8240 nM.

As for `COc1cccc2c1CN(CCNC(=O)Nc1ccc(Oc3ccccc3)cc1)CC2` [Compound 174, 1-[2-(8-Methoxy-3,4-dihydro-1H-isoquinolin-2-yl)-ethyl]-3-(4-phenoxy-phenyl)-urea], the IC50 under setting [2] was determined as 550 nM. As to `O=C(CN1Cc2ccccc2C1)N1c2ccccc2Oc2ccccc21` [Compound 178, 2-(1,3-Dihydro-isoindol-2-yl)-1-phenoxazin-10-yl-ethanone], the IC50 under setting [2] worked out at 620 nM.

Consider `CS(=O)(=O)Oc1cccc2c1CN(CC(=O)N1c3ccccc3Oc3ccccc31)C2` [Compound 203, Methanesulfonic acid 2-(2-oxo-2-phenoxazin-10-yl-ethyl)-2,3-dihydro-1H-isoindol-4-yl ester], for which the IC50 under setting [2] was found to be 1110 nM.

Regarding `COc1cccc2c1CN(CC(=O)NC(c1ccc(F)cc1)c1ccc(F)cc1)CC2` [Compound 120, N-[Bis-(4-fluoro-phenyl)-methyl]-2-(8-methoxy-3,4-dihydro-1H-isoquinolin-2-yl)-acetamide], the IC50 under setting [2] came out at 3340 nM.
